Results: US9856256B2, “Pyridino[1,2-A]pyrimidone analogue used as P13K inhibitor” (CHIA TAI TIANQING PHARMACEUTICAL GROUP CO., LTD., priority 2014, dated 2018)

Experiments:
[1] = biological target: T1, mTOR (Homo sapiens, UniProt P42345); assay: In vitro enzyme activity assay, mTOR kinase (32P-ATP, P81 filter-binding); type: biochemical; conditions: 4EBPI substrate, 10 μM ATP; read-out: mTOR enzyme activity_IC50
T1 construct: recombinant human mTOR fragment (amino acid 1360-2549, molecular weight=163.9 kDa); GST-tag (N); host or cells: insect cells
Description: mTOR kinase activities of the compounds in all the examples of the present invention were tested via the following method.
Reaction buffer: 20 mM Hepes (pH 7.5), 10 mM MgCl2, 2 mM MnCl2, 1 mM EGTA, 0.02% Brij35, 0.02 mg/mL BSA, 0.1 mM Na3VO4, 2 mM DTT, and 2% DMSO.
Enzyme for reaction: recombinant human mTOR fragment (amino acid 1360-2549, molecular weight=163.9 kDa) with a GST-tag at the N-terminus, which was expressed in insect cells.
Substrate for reaction: recombinant full-length human 4EBPI (molecular weight=13.6 kDa) with a His-tag at the N-terminus, which was expressed in bacteria.
Reaction conditions: […] 4EBPI and 10 μM ATP.
1. adding the reaction substrate and other reaction factors into the freshly prepared reaction buffer;
(§1) 2. adding the kinase into the substrate reaction solution, and mixing gently;
3. transferring the compound dissolved in 100% DMSO into the kinase reaction solution by using Acoustic technique (Echo550; nanoliter rang), and incubating at room temperature for 20 minutes;
4. adding an appropriate concentration of ^32P-ATP into the reaction system;
5. incubating at room temperature for 2 hours;
6. detecting the kinase activity by using P81 filter-binding method.

[2] = system: MCF-7 cells; assay: In vitro cell activity assay (MCF-7, insulin stimulation, ELISA-One); type: cell-based; conditions: Homo sapiens, MCF7, compound 2 hours in serum-free media, then 10 μg/ml insulin 30 min
Description: Experimental Steps and Method Comprise:
1. MCF-7 cells were seeded at 2,5000 cells per well in a 96 well tissue culture plate in a complete media containing 10%0/FBS.
3. The cells were treated with 10 μg/ml insulin in serum-free media for 30 min.
4. During waiting period, lysis solution was prepared as below:
a) Enhancer Solution needs to be taken out from the refrigerator to be thawed.
b) Concentrated lysis solution was prepared by diluting Enhancer Solution 10-fold in 5× Lysis Buffer.
c) Lysis solution was prepared by diluting concentrated lysis solution 5-fold with ddH2O.
5. Any media were removed from wells and the wells were rinsed with PBS once quickly.
6. 50 μL of freshly prepared lysis solution were added into each well, with shaking at room temperature for 10 min.
7. After confirming that all cells get detached from wells, the lysis solution together with the cell debris was transferred to 1.5 ml tubes.
8. The tubes were vortexed several times to thoroughly mix the lysis solution and cells, and then, and then the mixture was centrifuged at 12,000 g for 10 min at 4° C.;
9. The desired number of ELISA-One microplate strips was determined. Unused strips were removed from frame and returned to storage pouch and seal. Wells for use in the assay were rinsed with 200 μL ddH2O to remove preservatives prior to use.
10. 50 μL of antibody mixture solution was added into each well. (Antibody mixture solution was prepared by mixing capture antibody reagent and detection antibody reagent equally, avoid vortexing)
11. 25 μL of lysate was added into each well of the ELISA-One microplate. The microplate was covered with adhesive seal and incubated for 1 hour at room temperature on a microplate shaker.
12. Each well was washed with 150 μL 1× wash buffer 3 times. After final wash, any remaining wash buffer was removed from wells. If necessary, leave microplate in 1× Wash Buffer for up to 30 min, until substrate mixture solution has been prepared.
13. The substrate mixture solution should be prepared when used, 100 μL of substrate mixture solution was added into each well, and then the microplate was sealed with tin foil and incubated at room temperature for 10 minutes on a microplate shaker.
14. 10 μL of stop solution was added into each well, and then mixed slightly (5-10 seconds) on a microplate shaker.
15. Corresponding ELISA-One filter set was installed to read the fluorescence signal intensity.

[3] = biological target: PI3K (p110α) (Homo sapiens, UniProt P42336); assay: In vitro enzyme activity assay, PI3K (p110α) kinase, Method I (HTRF); type: biochemical; set-up: recombinant full-length human PI3K p110α subunit; His-tag (N); host or cells: insect cells; conditions: 10 μM PI(4,5)P2 and 10 μM ATP), read-out: PI3K (p110α) enzyme activity_IC50
Description: PI3K (p110α) kinase activities of the compounds in all the examples of the present invention were tested via the following two methods, respectively.
Reaction buffer: HEPES 50 mM (pH7.0), NaN3 0.02%, BSA 0.01%. Orthovanadate 0.1 mM, and 1% DMSO.
Detection buffer: HEPES 10 mM (pH7.0), BSA 0.02%, KF 0.16 M, and EDTA 4 mM.
Enzymes for reaction: recombinant full-length human PI3K p110α subunit (molecular weight=128.4 kDa) with a His-tag at the N-terminus and unlabeled p85α subunit (molecular weight=83.6 kDa), which were expressed in insect cells.
Substrate for reaction: […] PIP2 substrate (PI(4,5)P2).
Reaction conditions: 10 μM PI(4,5)P2 and 10 μM ATP.
1. preparing the substrate in the freshly prepared reaction buffer;
as §1
3. transferring the compound dissolved in 100% DMSO into the kinase reaction solution by using Acoustic technique (Echo550; nanoliter rang), and incubating at room temperature for 10 minutes;
4. adding an appropriate concentration of ATP into the reaction system,
5. incubating at 30° C. for half an hour;
6. terminating the reaction by adding a stop solution;
7. adding the detection buffer and incubating overnight; and
8. detecting by using homogeneous time-resolved fluorescence (HTRF) method (excitation wavelength of 320 nm, measuring the ratio of the emission wavelength readings at 615 nm and 665 nm).

T1 sequence (P42345 1360-2549): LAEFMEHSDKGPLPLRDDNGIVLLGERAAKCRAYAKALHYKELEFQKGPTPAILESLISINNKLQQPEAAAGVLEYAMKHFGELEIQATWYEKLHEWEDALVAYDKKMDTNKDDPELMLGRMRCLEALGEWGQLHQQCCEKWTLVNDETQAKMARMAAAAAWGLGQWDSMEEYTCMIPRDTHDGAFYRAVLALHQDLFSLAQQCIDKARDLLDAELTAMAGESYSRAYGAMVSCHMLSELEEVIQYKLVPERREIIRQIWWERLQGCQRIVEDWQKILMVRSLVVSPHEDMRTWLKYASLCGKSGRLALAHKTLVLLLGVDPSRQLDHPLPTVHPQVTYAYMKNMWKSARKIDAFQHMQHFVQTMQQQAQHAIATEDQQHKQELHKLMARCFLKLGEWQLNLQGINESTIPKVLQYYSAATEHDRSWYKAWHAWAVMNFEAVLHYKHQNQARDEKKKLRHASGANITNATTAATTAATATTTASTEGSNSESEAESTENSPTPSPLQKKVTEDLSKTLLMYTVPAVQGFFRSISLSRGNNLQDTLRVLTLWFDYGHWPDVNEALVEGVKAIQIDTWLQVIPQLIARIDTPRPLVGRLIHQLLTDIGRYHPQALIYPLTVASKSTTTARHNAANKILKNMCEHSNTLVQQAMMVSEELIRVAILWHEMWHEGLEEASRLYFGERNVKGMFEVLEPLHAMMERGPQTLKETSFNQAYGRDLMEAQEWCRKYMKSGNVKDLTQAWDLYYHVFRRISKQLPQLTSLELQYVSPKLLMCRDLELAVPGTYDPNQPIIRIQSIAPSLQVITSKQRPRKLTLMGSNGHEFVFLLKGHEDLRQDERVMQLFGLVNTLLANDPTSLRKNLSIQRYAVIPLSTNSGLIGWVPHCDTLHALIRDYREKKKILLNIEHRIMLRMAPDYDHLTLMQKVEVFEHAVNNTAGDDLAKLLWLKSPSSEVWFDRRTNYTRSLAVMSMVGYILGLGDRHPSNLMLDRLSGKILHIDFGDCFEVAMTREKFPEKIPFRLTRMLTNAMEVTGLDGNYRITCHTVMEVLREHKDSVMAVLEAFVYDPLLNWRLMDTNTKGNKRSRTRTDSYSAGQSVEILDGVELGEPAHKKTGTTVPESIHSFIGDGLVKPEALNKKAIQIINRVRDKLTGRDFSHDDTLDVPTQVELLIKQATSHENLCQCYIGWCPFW
PI3K (p110α), sequence (P42336 whole entry): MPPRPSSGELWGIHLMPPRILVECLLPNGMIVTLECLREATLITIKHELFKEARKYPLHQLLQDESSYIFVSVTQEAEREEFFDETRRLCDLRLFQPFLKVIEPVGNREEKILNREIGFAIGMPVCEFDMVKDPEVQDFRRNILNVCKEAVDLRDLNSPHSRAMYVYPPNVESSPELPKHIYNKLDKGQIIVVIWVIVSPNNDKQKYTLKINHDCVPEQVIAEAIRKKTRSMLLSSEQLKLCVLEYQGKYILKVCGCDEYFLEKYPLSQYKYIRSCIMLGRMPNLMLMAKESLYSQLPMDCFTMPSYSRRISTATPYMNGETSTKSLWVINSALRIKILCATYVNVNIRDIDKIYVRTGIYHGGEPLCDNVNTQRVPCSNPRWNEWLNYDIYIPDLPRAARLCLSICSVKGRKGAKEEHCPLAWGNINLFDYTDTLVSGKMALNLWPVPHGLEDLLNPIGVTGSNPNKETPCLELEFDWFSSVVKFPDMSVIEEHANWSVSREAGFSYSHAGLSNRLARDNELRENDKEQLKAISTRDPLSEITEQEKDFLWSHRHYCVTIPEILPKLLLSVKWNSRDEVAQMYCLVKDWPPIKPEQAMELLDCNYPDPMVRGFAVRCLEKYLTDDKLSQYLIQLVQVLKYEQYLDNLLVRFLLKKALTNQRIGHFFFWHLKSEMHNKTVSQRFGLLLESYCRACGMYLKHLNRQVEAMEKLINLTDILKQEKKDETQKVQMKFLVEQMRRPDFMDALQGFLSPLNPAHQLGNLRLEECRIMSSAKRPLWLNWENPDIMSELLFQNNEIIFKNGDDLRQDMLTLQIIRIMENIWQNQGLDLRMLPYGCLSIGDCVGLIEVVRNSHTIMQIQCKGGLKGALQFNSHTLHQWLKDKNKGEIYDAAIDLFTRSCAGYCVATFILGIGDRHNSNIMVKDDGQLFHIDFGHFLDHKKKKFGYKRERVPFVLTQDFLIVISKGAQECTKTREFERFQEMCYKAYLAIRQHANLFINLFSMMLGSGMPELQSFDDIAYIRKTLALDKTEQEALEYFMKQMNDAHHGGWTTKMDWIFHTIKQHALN
PI3K (p110α), sequence (P27986 whole entry partner): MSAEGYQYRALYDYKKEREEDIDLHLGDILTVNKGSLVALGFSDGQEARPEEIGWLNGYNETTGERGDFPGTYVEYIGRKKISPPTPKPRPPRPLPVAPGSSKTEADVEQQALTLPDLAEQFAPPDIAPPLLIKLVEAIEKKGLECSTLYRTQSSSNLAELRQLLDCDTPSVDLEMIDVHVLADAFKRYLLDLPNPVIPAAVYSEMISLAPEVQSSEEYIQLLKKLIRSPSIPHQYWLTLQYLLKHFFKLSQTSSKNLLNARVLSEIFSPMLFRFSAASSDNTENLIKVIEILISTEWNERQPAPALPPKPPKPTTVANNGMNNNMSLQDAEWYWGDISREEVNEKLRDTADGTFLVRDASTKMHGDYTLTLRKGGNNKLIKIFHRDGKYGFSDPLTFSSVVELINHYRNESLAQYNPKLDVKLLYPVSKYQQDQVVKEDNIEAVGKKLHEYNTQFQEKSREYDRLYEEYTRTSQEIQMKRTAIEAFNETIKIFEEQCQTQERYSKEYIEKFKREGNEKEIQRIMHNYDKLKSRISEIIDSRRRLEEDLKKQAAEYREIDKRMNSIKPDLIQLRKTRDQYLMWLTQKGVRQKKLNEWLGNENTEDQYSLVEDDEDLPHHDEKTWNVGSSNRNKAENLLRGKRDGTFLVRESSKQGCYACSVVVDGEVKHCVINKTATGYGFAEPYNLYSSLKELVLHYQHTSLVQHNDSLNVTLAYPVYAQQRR

Question: With `COc1ncc(-c2ccc3ncc(OCCN(C)C)c(=O)n3c2)cc1NS(=O)(=O)c1sc(C)nc1C` [Compound 35] as the compound, how does the IC50 [1] read?
Answer: Its IC50 is 50 to 200 nM.

Question: What about the IC50 [2] of the same compound?
Answer: The IC50 was no more than 50 nM.

Question: What about the IC50 [3] of the same compound?
Answer: The IC50 was no more than 1 nM.

Question: What does the source list for `COc1ncc(-c2ccc3ncc(OCCN(C)C)c(=O)n3c2)cc1NS(=O)(=O)c1sccc1C` [Compound 36]?
Answer: IC50 [1]: > 200 nM; IC50 [2]: ≤ 50 nM; IC50 [3]: ≤ 1 nM

Question: For `COc1ncc(-c2ccc3ncc(OCCn4cccn4)c(=O)n3c2)cc1NS(=O)(=O)c1ccc(F)cc1F` [Compound 37, 2,4-Difluoro-N-(2-methoxy-5-(4-oxo-3-(2-pyrazol-1-yl-ethoxy)pyrido[1,2-a]pyrimidin-7-yl)pyridin-3-yl)benzenesulfonamide], which IC50 [1] is on record?
Answer: Its IC50 is 50 to 200 nM.

Question: And the IC50 [2]?
Answer: Its IC50 is 100 to 250 nM.

Question: And the IC50 [3]?
Answer: Its IC50 is no more than 1 nM.

Question: What does the source list for `COc1ncc(-c2ccc3ncc(OCCN4CCCC4)c(=O)n3c2)cc1NS(=O)(=O)c1ccc(F)cc1F` [Compound 42]?
Answer: IC50 [1]: > 200 nM; IC50 [2]: 100 to 250 nM; IC50 [3]: ≤ 1 nM

Question: Which results are given for `COc1ncc(-c2ccc3ncc(OCCN(C)C)c(=O)n3c2)cc1NS(=O)(=O)c1ccc(F)cc1F` [Compound 43]?
Answer: IC50 [1]: > 200 nM; IC50 [2]: 50 to 100 nM; IC50 [3]: ≤ 1 nM
